Assay results as given in the NIST ThermoML archive (doi:10.1016/j.jct.2018.08.013).
Where “and” joins values, the source holds several entries; their conditions need not be identical. Equal entries are not always repeated.

Legend:
[1] = xn = mol fraction of the nth substance listed; conditions: 298 K; 100 kPa; Crystal of intercomponent compound 1; X-ray diffraction; x2 = 0.477
[2] = specific heat capacity at constant pressure; xn = mol fraction of the nth substance listed; conditions: 100 kPa, Crystal of intercomponent compound 1, x2 = 0.477

[Se] [selenium] + [In]
Conditions | mass density [kg/m3]
[1] | 5546

[2]
Conditions | specific heat capacity
10.11 K, relaxation calorimetry | 10.21 J/K/kg and 10.22 J/K/kg and 10.23 J/K/kg
12.12 K, relaxation calorimetry | 16.85 J/K/kg and 16.83 J/K/kg
12.14 K, relaxation calorimetry | 16.97 J/K/kg
14.13 K, relaxation calorimetry | 24.44 J/K/kg
14.15 K, relaxation calorimetry | 24.49 J/K/kg
16.15 K, relaxation calorimetry | 32.56 J/K/kg and 32.49 J/K/kg
16.16 K, relaxation calorimetry | 32.62 J/K/kg
18.17 K, relaxation calorimetry | 40.89 J/K/kg and 40.88 J/K/kg
18.18 K, relaxation calorimetry | 40.87 J/K/kg
20.18 K, relaxation calorimetry | 49.24 J/K/kg
20.19 K, relaxation calorimetry | 49.1 J/K/kg and 49.16 J/K/kg
22.2 K, relaxation calorimetry | 57.18 J/K/kg and 57.13 J/K/kg
22.21 K, relaxation calorimetry | 56.97 J/K/kg
24.22 K, relaxation calorimetry | 65.02 J/K/kg and 64.97 J/K/kg
24.23 K, relaxation calorimetry | 64.87 J/K/kg
26.24 K, relaxation calorimetry | 72.45 J/K/kg and 72.56 J/K/kg
28.25 K, relaxation calorimetry | 79.57 J/K/kg
30.27 K, relaxation calorimetry | 86.33 J/K/kg and 86.39 J/K/kg
32.78 K, relaxation calorimetry | 94.54 J/K/kg
32.79 K, relaxation calorimetry | 94.59 J/K/kg
35.31 K, relaxation calorimetry | 102.49 J/K/kg and 102.64 J/K/kg
37.81 K, relaxation calorimetry | 109.66 J/K/kg
37.82 K, relaxation calorimetry | 109.87 J/K/kg
40.34 K, relaxation calorimetry | 117.25 J/K/kg
40.35 K, relaxation calorimetry | 116.73 J/K/kg and 116.68 J/K/kg
42.86 K, relaxation calorimetry | 123.23 J/K/kg
42.87 K, relaxation calorimetry | 122.77 J/K/kg
45.38 K, relaxation calorimetry | 129.63 J/K/kg
45.39 K, relaxation calorimetry | 129.32 J/K/kg
45.4 K, relaxation calorimetry | 129.27 J/K/kg
47.9 K, relaxation calorimetry | 135.36 J/K/kg
47.91 K, relaxation calorimetry | 134.84 J/K/kg
50.41 K, relaxation calorimetry | 141.5 J/K/kg
50.42 K, relaxation calorimetry | 140.88 J/K/kg
50.44 K, relaxation calorimetry | 140.73 J/K/kg
52.93 K, relaxation calorimetry | 146.09 J/K/kg
52.95 K, relaxation calorimetry | 145.42 J/K/kg
55.43 K, relaxation calorimetry | 151.41 J/K/kg
55.46 K, relaxation calorimetry | 150.74 J/K/kg
55.48 K, relaxation calorimetry | 150.63 J/K/kg
57.97 K, relaxation calorimetry | 155.28 J/K/kg
57.99 K, relaxation calorimetry | 154.81 J/K/kg
60.46 K, relaxation calorimetry | 160.13 J/K/kg
60.49 K, relaxation calorimetry | 159.41 J/K/kg
60.52 K, relaxation calorimetry | 159.25 J/K/kg
63.01 K, relaxation calorimetry | 163.79 J/K/kg
63.04 K, relaxation calorimetry | 162.97 J/K/kg
65.49 K, relaxation calorimetry | 168.85 J/K/kg
65.53 K, relaxation calorimetry | 167.77 J/K/kg
65.57 K, relaxation calorimetry | 167.3 J/K/kg
68.05 K, relaxation calorimetry | 171.53 J/K/kg
68.08 K, relaxation calorimetry | 170.97 J/K/kg
70.52 K, relaxation calorimetry | 176.23 J/K/kg
70.56 K, relaxation calorimetry | 175.25 J/K/kg
70.63 K, relaxation calorimetry | 173.96 J/K/kg
73.05 K, relaxation calorimetry | 178.14 J/K/kg
73.09 K, relaxation calorimetry | 177.31 J/K/kg
75.56 K, relaxation calorimetry | 182.68 J/K/kg
75.6 K, relaxation calorimetry | 181.49 J/K/kg
75.67 K, relaxation calorimetry | 180.82 J/K/kg
78.13 K, relaxation calorimetry | 184.75 J/K/kg
78.16 K, relaxation calorimetry | 183.82 J/K/kg
80.57 K, relaxation calorimetry | 189.39 J/K/kg
80.65 K, relaxation calorimetry | 187.95 J/K/kg
80.71 K, relaxation calorimetry | 187.02 J/K/kg
83.17 K, relaxation calorimetry | 190.47 J/K/kg
83.2 K, relaxation calorimetry | 189.7 J/K/kg
85.61 K, relaxation calorimetry | 194.76 J/K/kg
85.69 K, relaxation calorimetry | 193.42 J/K/kg
85.74 K, relaxation calorimetry | 192.69 J/K/kg
88.19 K, relaxation calorimetry | 195.84 J/K/kg
88.24 K, relaxation calorimetry | 194.76 J/K/kg
90.63 K, relaxation calorimetry | 200.23 J/K/kg
90.71 K, relaxation calorimetry | 198.78 J/K/kg
90.78 K, relaxation calorimetry | 197.54 J/K/kg
93.18 K, relaxation calorimetry | 200.64 J/K/kg
93.24 K, relaxation calorimetry | 199.45 J/K/kg
95.65 K, relaxation calorimetry | 204.05 J/K/kg
95.74 K, relaxation calorimetry | 202.39 J/K/kg
95.83 K, relaxation calorimetry | 201.41 J/K/kg
98.2 K, relaxation calorimetry | 204.15 J/K/kg
98.3 K, relaxation calorimetry | 202.34 J/K/kg
100.79 K, relaxation calorimetry | 205.8 J/K/kg
100.83 K, relaxation calorimetry | 205.34 J/K/kg
100.91 K, relaxation calorimetry | 207.4 J/K/kg
101.79 K, relaxation calorimetry | 206.37 J/K/kg
101.88 K, relaxation calorimetry | 205.18 J/K/kg
105.84 K, relaxation calorimetry | 208.74 J/K/kg
105.86 K, relaxation calorimetry | 208.07 J/K/kg
109.83 K, relaxation calorimetry | 211.27 J/K/kg
109.93 K, relaxation calorimetry | 209.1 J/K/kg
113.88 K, relaxation calorimetry | 213.59 J/K/kg
113.93 K, relaxation calorimetry | 212.1 J/K/kg
117.9 K, relaxation calorimetry | 215.3 J/K/kg
117.98 K, relaxation calorimetry | 213.08 J/K/kg
121.94 K, relaxation calorimetry | 217.67 J/K/kg
121.97 K, relaxation calorimetry | 216.38 J/K/kg
125.98 K, relaxation calorimetry | 218.34 J/K/kg and 218.39 J/K/kg
130 K, relaxation calorimetry | 220.35 J/K/kg
130.01 K, relaxation calorimetry | 220.87 J/K/kg
133.92 K, relaxation calorimetry | 223.14 J/K/kg
134.04 K, relaxation calorimetry | 219.79 J/K/kg
138.04 K, relaxation calorimetry | 223.76 J/K/kg
138.07 K, relaxation calorimetry | 223.97 J/K/kg
141.97 K, relaxation calorimetry | 225.82 J/K/kg
142.1 K, relaxation calorimetry | 222.52 J/K/kg
146.07 K, relaxation calorimetry | 227.01 J/K/kg
146.14 K, relaxation calorimetry | 226.7 J/K/kg
150.02 K, relaxation calorimetry | 228.71 J/K/kg
150.14 K, relaxation calorimetry | 225.72 J/K/kg
154.13 K, relaxation calorimetry | 230.11 J/K/kg
154.16 K, relaxation calorimetry | 229.02 J/K/kg
162.19 K, relaxation calorimetry | 232.33 J/K/kg
162.21 K, relaxation calorimetry | 231.34 J/K/kg
170.26 K, relaxation calorimetry | 233.51 J/K/kg
170.28 K, relaxation calorimetry | 234.13 J/K/kg
178.32 K, relaxation calorimetry | 235.16 J/K/kg
178.34 K, relaxation calorimetry | 235.63 J/K/kg
186.37 K, relaxation calorimetry | 236.76 J/K/kg
186.4 K, relaxation calorimetry | 237.23 J/K/kg
194.4 K, relaxation calorimetry | 238 J/K/kg
194.45 K, relaxation calorimetry | 238.31 J/K/kg
202.42 K, relaxation calorimetry | 239.96 J/K/kg
202.5 K, relaxation calorimetry | 239.65 J/K/kg
210.44 K, relaxation calorimetry | 241.2 J/K/kg
210.53 K, relaxation calorimetry | 241.05 J/K/kg
218.46 K, relaxation calorimetry | 241.51 J/K/kg
218.55 K, relaxation calorimetry | 241.2 J/K/kg
226.5 K, relaxation calorimetry | 242.85 J/K/kg
226.59 K, relaxation calorimetry | 242.65 J/K/kg
234.52 K, relaxation calorimetry | 243.63 J/K/kg
234.63 K, relaxation calorimetry | 243.37 J/K/kg
242.56 K, relaxation calorimetry | 244.4 J/K/kg
242.67 K, relaxation calorimetry | 244.04 J/K/kg
250.6 K, relaxation calorimetry | 245.28 J/K/kg
250.71 K, relaxation calorimetry | 245.12 J/K/kg
255.57 K, relaxation calorimetry | 245.59 J/K/kg
255.58 K, relaxation calorimetry | 246.52 J/K/kg
258.63 K, relaxation calorimetry | 245.95 J/K/kg
258.74 K, relaxation calorimetry | 245.79 J/K/kg
264.04 K, relaxation calorimetry | 247.24 J/K/kg
264.08 K, relaxation calorimetry | 246.1 J/K/kg
265.74 K, Extra sensitive DSC | 248.37 J/K/kg
266.66 K, relaxation calorimetry | 246.62 J/K/kg
266.77 K, relaxation calorimetry | 246.57 J/K/kg
270 K, Extra sensitive DSC | 248.48 J/K/kg
272.24 K, relaxation calorimetry | 248.48 J/K/kg
272.34 K, relaxation calorimetry | 248.43 J/K/kg
274.69 K, relaxation calorimetry | 247.7 J/K/kg
274.81 K, relaxation calorimetry | 247.7 J/K/kg
275 K, Extra sensitive DSC | 248.79 J/K/kg
280 K, Extra sensitive DSC | 249.1 J/K/kg
280.72 K, relaxation calorimetry | 249.15 J/K/kg
280.84 K, relaxation calorimetry | 248.06 J/K/kg
282.72 K, relaxation calorimetry | 248.48 J/K/kg
282.83 K, relaxation calorimetry | 248.37 J/K/kg
285 K, Extra sensitive DSC | 249.51 J/K/kg
288.98 K, relaxation calorimetry | 249.72 J/K/kg
289.06 K, relaxation calorimetry | 248.53 J/K/kg
290 K, Extra sensitive DSC | 249.92 J/K/kg
290.72 K, relaxation calorimetry | 248.79 J/K/kg
290.85 K, relaxation calorimetry | 248.94 J/K/kg
294.72 K, relaxation calorimetry | 248.58 J/K/kg
294.84 K, relaxation calorimetry | 249.25 J/K/kg
295 K, Extra sensitive DSC | 250.03 J/K/kg
297.48 K, relaxation calorimetry | 249.25 J/K/kg
297.56 K, relaxation calorimetry | 248.74 J/K/kg
298.75 K, relaxation calorimetry | 248.74 J/K/kg
298.86 K, relaxation calorimetry | 250.59 J/K/kg
300 K, Extra sensitive DSC | 250.18 J/K/kg
303.85 K, relaxation calorimetry | 252.19 J/K/kg
303.86 K, relaxation calorimetry | 252.14 J/K/kg
305 K, Extra sensitive DSC | 250.39 J/K/kg
305.75 K, relaxation calorimetry | 251.52 J/K/kg
305.8 K, relaxation calorimetry | 251.11 J/K/kg
306.87 K, relaxation calorimetry | 252.97 J/K/kg and 252.76 J/K/kg
310 K, Extra sensitive DSC | 251.42 J/K/kg
315 K, Extra sensitive DSC | 252.09 J/K/kg
320 K, Extra sensitive DSC | 251.78 J/K/kg
325 K, Extra sensitive DSC | 252.3 J/K/kg
330 K, Extra sensitive DSC | 253.12 J/K/kg
335 K, Extra sensitive DSC | 254.52 J/K/kg
340 K, Extra sensitive DSC | 254.88 J/K/kg
345 K, Extra sensitive DSC | 255.7 J/K/kg
350 K, Extra sensitive DSC | 256.89 J/K/kg
355 K, Extra sensitive DSC | 257.82 J/K/kg
357.87 K, Extra sensitive DSC | 258.59 J/K/kg
